System: KPMM2 cells
Conditions: fixed concentration of anti-human IL-6 receptor antibody; 0.1 or 1 ng/ml IL-6 (FIG. 1 to 6)
Description: The effects of anti-human IL-6 receptor antibody on sensitivity of KPMM2 cells to chemotherapeutic agents used for treatment of myeloma such as adriamycin (ADR, manufactured by Kyowa Hakko), vincristine (VCR, manufactured by Sigma Chemical Co.), and melphalan (L-PAM, manufactured by Sigma Chemical Co.) were evaluated.
KPMM2 is a multiple myeloma cell line derived from the ascites of a human patient with myeloma (see Japanese Unexamined Patent Publication (Kokai) No. 7-236475). […] The growth activity of the cell was evaluated by incorporation of ^3H-labeled thymidine (manufactured by Amersham) into the cell.
The KPMM2 cells that had been maintained were washed thoroughly with a fresh medium (RPMI1640 medium supplemented with 20% FBS), and then were adjusted to 4×10^5/ml, which was dispensed in 50 μl aliquots in a 96-well flat-bottomed microtiter plate (manufactured by Falcon). Furthermore, a medium containing a recombinant human IL-6 (Asagoe, Y. et al., Bio/Technology (1988) 6, 806-809), anti-human IL-6 receptor antibody hPM-1 (see the above reference example 1 or International Patent Application WO 92-15759), and the above chemotherapeutic agents or a fresh medium as control were added to make 200 μl in each well.
The plate was incubated at 37° C. for 4 days under the humidified condition in the presence of 5% CO2. At four hours before the end of incubation, 10 μl of ^3H-labeled thymidine solution (100 μCi/ml) was added to each well, and then incubated for more 4 hours. At the end of incubation, the cells were collected onto the glass filter (manufactured by Printed Filtermat A, WALLAC) using a harvester (Micro 96 Harvester, manufactured by SKATRON Instruments). The radioactivity incorporated into the cells was measured by a microbeta (1450 MicroBeta, manufactured by WALLAC).
The activity of growth inhibition on KPMM2 was expressed using the effect by a chemotherapeutic agent alone as the control. Using the incorporation of ^3H-labeled thymidine into the cell for each experimental group in which a each concentration of a chemotherapeutic agent was added as 100, the amount of ^3H-labeled thymidine incorporated into the cell in an experimental group in which anti-human IL-6 receptor antibody was simultaneously added was compared as an index.

Structure (SMILES): COc1cccc2c1C(=O)c1c(O)c3c(c(O)c1C2=O)C[C@@](O)(C(=O)CO)C[C@@H]3O[C@H]1C[C@H](N)[C@H](O)[C@H](C)O1 [adriamycin]
- relationship of growth index with the concentration of chemotherapeutic agent: almost constant regardless of their concentration

Structure (SMILES): CC[C@]1(O)C[C@H]2CN(CCc3c([nH]c4ccccc34)[C@@](C(=O)OC)(c3cc4c(cc3OC)N(C=O)[C@H]3[C@@](O)(C(=O)OC)[C@H](OC(C)=O)[C@]5(CC)C=CCN6CC[C@]43[C@@H]65)C2)C1 [vincristine]
- relationship of growth index with the concentration of chemotherapeutic agent: almost constant regardless of their concentration

Reference: patent US7566453B2, “Methods for treating melanomas” (Chugai Seiyaku Kabushiki Kaisha, priority 1998, dated 2009)
